According to PMC4853476 (Nature Communications, 2016):
Like-named read-outs stand apart in the source and are kept apart here.

How the values were obtained:
human PRC2 complex = human PRC2 complex (Homo sapiens, UniProt O75530+Q15022+Q15910, DEL183-210)
Method: All anisotropy titrations were performed at 20 °C using a Jasco FP-8500 fluorimeter.
affinity of PRC2 for H3 peptide.
(a) Direct titration of PRC2 into FAM-K27M (0.4 μM) in the presence
absence of co-factor (white circles).
(320 μM) with unlabelled peptides.
titration of PRC2 into FAM-
The titration in the absence of repressive

PRC2 [1] = settings: kinetic studies, cited from earlier work
From the text: In their recent analysis, Brown et al.[19] quantified the inhibitory affect of a series of peptide constructs varying in the side chain (both natural and synthetic) at position 27.

[2] = target: human PRC2 core complex (EZH2^N 1-385 lacking 183-210, EZH2^C 421-746, EED 77-441, SUZ12 535-685) (human) (UniProt Q15910); assay: fluorescence polarisation; anisotropy displacement titration: unlabelled peptide added to FAM-H3K27M (0.4 μM) and PRC2 ([…]) with SAM (320 μM); 20 °C; 25 mM Hepes pH 7.25, 25 mM NaCl, 1 mM TCEP, 0.01% Brij-35
human PRC2 core complex (EZH2^N 1-385 lacking 183-210, EZH2^C 421-746, EED 77-441, SUZ12 535-685) (human), sequence (Q15910 other isoform, or with tags, fused parts or gaps, chain 1 of 4): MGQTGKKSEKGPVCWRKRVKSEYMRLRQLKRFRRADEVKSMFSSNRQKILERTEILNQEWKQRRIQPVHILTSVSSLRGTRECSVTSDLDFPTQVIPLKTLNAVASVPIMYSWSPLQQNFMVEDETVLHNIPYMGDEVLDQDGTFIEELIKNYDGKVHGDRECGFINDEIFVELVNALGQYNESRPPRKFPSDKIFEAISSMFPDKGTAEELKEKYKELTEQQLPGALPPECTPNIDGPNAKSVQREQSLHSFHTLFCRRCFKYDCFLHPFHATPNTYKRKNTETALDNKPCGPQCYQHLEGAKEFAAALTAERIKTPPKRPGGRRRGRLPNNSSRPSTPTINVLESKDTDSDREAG
human PRC2 core complex (EZH2^N 1-385 lacking 183-210, EZH2^C 421-746, EED 77-441, SUZ12 535-685) (human), sequence (Q15910 421-746, chain 2 of 4): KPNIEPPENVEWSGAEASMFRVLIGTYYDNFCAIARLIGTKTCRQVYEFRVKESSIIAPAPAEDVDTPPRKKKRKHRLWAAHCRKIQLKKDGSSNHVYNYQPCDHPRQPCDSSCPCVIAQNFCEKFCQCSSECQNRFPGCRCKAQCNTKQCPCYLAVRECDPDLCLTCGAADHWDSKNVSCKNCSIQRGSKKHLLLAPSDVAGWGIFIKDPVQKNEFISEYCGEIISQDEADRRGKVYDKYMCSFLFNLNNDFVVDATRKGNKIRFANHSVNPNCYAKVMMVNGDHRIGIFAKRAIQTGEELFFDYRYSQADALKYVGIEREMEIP
human PRC2 core complex (EZH2^N 1-385 lacking 183-210, EZH2^C 421-746, EED 77-441, SUZ12 535-685) (human), sequence (O75530 77-441, chain 3 of 4, further chain): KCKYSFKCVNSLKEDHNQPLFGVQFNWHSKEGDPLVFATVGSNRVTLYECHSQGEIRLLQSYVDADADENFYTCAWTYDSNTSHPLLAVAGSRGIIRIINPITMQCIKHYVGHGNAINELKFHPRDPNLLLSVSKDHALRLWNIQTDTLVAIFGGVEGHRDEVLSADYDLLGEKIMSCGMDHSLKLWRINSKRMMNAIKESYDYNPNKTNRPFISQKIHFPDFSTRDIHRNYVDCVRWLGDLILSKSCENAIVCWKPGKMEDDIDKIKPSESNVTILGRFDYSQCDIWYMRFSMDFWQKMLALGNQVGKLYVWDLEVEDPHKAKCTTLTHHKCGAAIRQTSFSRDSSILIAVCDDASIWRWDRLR
human PRC2 core complex (EZH2^N 1-385 lacking 183-210, EZH2^C 421-746, EED 77-441, SUZ12 535-685) (human), sequence (Q15022 535-685, chain 4 of 4, further chain): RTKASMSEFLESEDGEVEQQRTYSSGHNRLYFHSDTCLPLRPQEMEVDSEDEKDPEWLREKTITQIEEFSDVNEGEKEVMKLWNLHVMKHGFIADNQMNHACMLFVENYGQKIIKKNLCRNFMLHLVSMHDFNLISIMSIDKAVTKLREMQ

PRC2 [3] = settings: repressive peptides; cited from earlier work

human PRC2 complex, sequence (Q15910 421-746 limits assumed, stated change not applied): as the sequence (Q15910 421-746, chain 2 of 4) above
human PRC2 complex, sequence (Q15910 with tags, fused parts or gaps DEL183-210 limits assumed): as the sequence (Q15910 other isoform, or with tags, fused parts or gaps, chain 1 of 4) above
human PRC2 complex, sequence (O75530 77-441 partner limits assumed): as the sequence (O75530 77-441, chain 3 of 4, further chain) above
human PRC2 complex, sequence (Q15022 535-685 partner limits assumed): as the sequence (Q15022 535-685, chain 4 of 4, further chain) above

C[S+](CC[C@H](N)C(=O)[O-])C[C@H]1O[C@@H](n2cnc3c(N)ncnc32)[C@H](O)[C@@H]1O (stereo partly drawn) [SAM, S-adenosylmethionine]
Kd (human PRC2 complex): 47 ± 9 µM

Norleucine
relative inhibition of PRC2 by residue at position 27 (words) (PRC2 [1]): even better inhibitor than methionine
relative inhibition of PRC2 by residue at position 27 (words) (PRC2 [1]; listed as norleucine): strong inhibition

Nc1ncnc2c1ncn2[C@@H]1O[C@H](CSCC[C@H](N)C(=O)O)[C@@H](O)[C@H]1O [SAH]
binding of cofactor product (human PRC2 complex; relative to SAM): binds much weaker

unlabelled H3R26AK27M peptide
Kd [2]: 73 µM

Jarid2 K116me3: trimethylated K116 Jarid2 peptide (residues 111–121), binds EED and activates PRC2
activation of PRC2 (PRC2 [3]): strongest activation of PRC2
